According to patent publication US20230190760A1, “ADVANTAGEOUS THERAPIES FOR DISORDERS MEDIATED BY IKAROS OR AIOLOS” (C4 Therapeutics, Inc., priority 2020, published 2023):

Columns and labels:
TMD8 DLBCL tumors = assay: TMD8 DLBCL xenograft, NOD SCID mice; assay type: in vivo
Procedure: A xenograft study was also conducted in female NOD SCID mice bearing TMD8 DLBCL tumors.
(§1) Statistical analysis was performed using two-way analysis of variance (ANOVA). Data are expressed as MTV±SEM.

KMM-1 = assay: Anti-proliferative activity, 96 hours; conditions: KMM-1, 96 h
[1] = test system: 8 multiple myeloma cell lines; assay: Growth of 8 multiple myeloma cell lines (CellTiter-Glo, 96 hour); assay type: cell-based
Maver-1 = assay: Anti-proliferative activity, 96 hours; conditions: Homo sapiens, Maver1, 96 h
RPMI-8226 tumors = assay: RPMI-8226 multiple myeloma xenograft, CB17 SCID mice (Example 13); assay type: in vivo
Procedure: (§2) Compound 1 efficacy in two multiple myeloma cell lines (NC-H929) and (RPMI-8226) was evaluated at four different doses: 3 μg/kg, 10 μg/kg, 30 μg/kg, and 100 μg/kg. Compound 1 was administered QD (every day) orally (PO). […]
as §1

[2] = test system: cutaneous T-cell lymphoma (CTCL) cell lines; assay: Anti-cancer activity in CTCL cell lines; assay type: cell-based; conditions: three of four cell lines tested were responsive, read-out: mean IC50 among the responsive lines
IKZF3 = target: T1, IKZF3 (Homo sapiens, UniProt Q96SW2+Q9UKT9); assay: NCI-H929 xenograft pharmacodynamic and pharmacokinetic study (Example 40); assay type: in vivo, mice
T1 construct: from tissue; host or cells: NCI-H929 MM xenograft tumours in female NOD SCID mice

[3] = test system: NCI-H929 multiple myeloma tumors; assay: NCI-H929 multiple myeloma xenograft, NOD SCID mice (Example 13); assay type: in vivo
Procedure: as §2
For the NCI-H929 cells, the xenograft study was conducted in female NOD SCID mice bearing NCI-H929 multiple myeloma tumors.
as §1

IKZF1/3 = assay: Biomarker assessment in MM and ALCL tumor bearing studies; assay type: in vivo
OPM-2 = assay: Anti-proliferative activity, 96 hours; conditions: Homo sapiens, OPM-2, 96 h
Rec-1 = assay: Anti-proliferative activity, 96 hours; conditions: Homo sapiens, Rec1, 96 h
[4] = test system: hematological cancer cell lines; assay: Anti-proliferative activity in hematological cancer cell lines (whole panel); assay type: cell-based; conditions: in multiple cell lines, 96 hours
IKZF1 = IKZF1 (Homo sapiens, UniProt Q13422+Q96SW2)
[5] = test system: germinal center B-cell like DLBCL lines; assay: Anti-cancer activity in GCB-DLBCL cell lines; assay type: cell-based; conditions: six of eleven responsive, read-out: mean IC50 amongst the responsive lines
[6] = test system: RPMI-8226 multiple myeloma tumors; conditions: Combination
SU-DHL-1 = assay: Anti-proliferative activity, 96 hours; conditions: Homo sapiens, SU-DHL-1, 96 h
TMD8 = assay: Anti-proliferative activity, 96 hours; conditions: Homo sapiens, TMD8, 96 h
Jeko-1 = assay: Anti-proliferative activity, 96 hours; conditions: Homo sapiens, JeKo-1, 96 h
[7] = test system: multiple myeloma cell lines; assay: Anti-cancer activity in a panel of multiple myeloma cell lines; assay type: cell-based; conditions: eight of twelve were responsive, read-out: mean IC50 among responsive lines
[8] = test system: 87 potential unintended molecular targets; assay: In vitro binding or activity against 87 potential unintended molecular targets; conditions: 100 nM, 500× the free plasma exposure (Cmax) of maximum in vivo efficacy
NHL cell lines = assay: NHL cell line growth inhibition assay (CellTiter-Glo, 96 hr); assay type: cell-based; conditions: variety of cancer assays (FIG. 45A-C, FIG. 52)
OCI-LY10 = assay: Anti-proliferative activity, 96 hours; conditions: Homo sapiens, OCI-Ly10, 96 h
MM.1R = assay: Anti-proliferative activity, 96 hours
cereblon-DDB1 = cereblon-DDB1 (Homo sapiens, UniProt Q96SW2); assay: Fluorescent polarization: probe displacement from purified cereblon-DDB1; assay type: binding; conditions: competition with Alexa-647 based fluorescence probe
Procedure: Columns 23 and 24 are reserved for 0% (5 nM probe) and 100% controls (protein at high concentration with 5 nM probe), respectively. […] Plates were read on an Envision plate reader with appropriate FP filter sets.

[9] = test system: REC1 mantle cell lymphoma tumors; assay: REC1 mantle cell lymphoma xenograft, balb/c nude mice; assay type: in vivo
Procedure: A xenograft study was conducted in female balb/c nude mice bearing REC1 mantle cell lymphoma tumors.
as §1

HepG2 liver cancer cells = assay: Viability assay in HepG2 liver cancer cells; assay type: cell-based; conditions: concentrations up to 3.3 μM
[10] = target: T2, cereblon-NanoLuc fusion protein in 293T cells (Homo sapiens, UniProt Q96SW2); assay: In-cell cereblon competition (NanoBRET tracer displacement); assay type: cell-based; conditions: 2 hours at 37° C.; read-out: IC50, 50% of the tracer displaced
T2 construct: expressed in transfected cells; host or cells: 293T cells, lentiviral

[11] = all eight multiple myeloma cell lines

SMILES: O=C1CC[C@H](N2C(=O)c3cccc4c(Cc5ccc(CN6CCOCC6)cc5)ccc2c34)C(=O)N1 (single isomer, unassigned) [Compound 1]
- Statistical Significance Compared to Vehicle (TMD8 DLBCL tumors; 100 μg/kg PO daily): <0.0001
- tumor volume (TMD8 DLBCL tumors; Compound 1 100 μg/kg, pomalidomide 3000 μg/kg, 18 days): decreased
- IC50 (KMM-1): 59 pM
- more potent than pomalidomide ([1]; across a panel of cell lines (FIG. 32)): 2-3 magnitudes
- IC50 [1, 11]: < 1000 pM
- maximal inhibition [1, 11]: greater than 50%
- more potent than pomalidomide ([1]; eight multiple myeloma cell lines): 1000 fold
- IC50 (Maver-1): 12100 pM
- Statistical Significance Compared to Vehicle (RPMI-8226 tumors; 30 μg/kg PO QD): 0.01
- Statistical Significance Compared to Vehicle (RPMI-8226 tumors; 100 μg/kg PO QD): 0.009
- IC50 [2]: 30000 pM
- time for the IKZF3 level to reach 50% of its pretreatment level (IKZF3; NCI-H929 tumor model, single dose): more than 48 hours
- duration of plasma and tumor concentrations (IKZF3; dosed at a 10-fold lower dose than CC-92480): measurable plasma and tumor concentrations for longer than CC-92480
- Statistical Significance Compared to Vehicle ([3]; 3 μg/kg PO QD): 0.04
- Statistical Significance Compared to Vehicle ([3]; 10 μg/kg PO QD): 0.0002
- Statistical Significance Compared to Vehicle ([3]; 30 μg/kg PO QD): 0.0004
- Statistical Significance Compared to Vehicle ([3]; 100 μg/kg PO QD): 0.0004
- tumor volume versus pomalidomide 3000 μg/kg ([3]; 3, 10, 30 and 100 μg/kg, NCI-H929 and RPMI-8226): reduced tumor volume more than pomalidomide
- degradation of both IKZF1/3 (IKZF1/3): > 75%
- duration of IKZF1/3 degradation (IKZF1/3): 24 h
- IC50 (OPM-2): 58 pM
- IC50 (Rec-1): 353 pM
- more active than pomalidomide [4]: more than 5,000 fold
- DC50 (IKZF1; 2 hour treatment): 21 pM
- Emax (IKZF1; NCI-H929, read-out: Mean Emax (%) ± SD, IKZF1 Degradation): 22.4 ± 3.1%
- Dmax (IKZF1; NCI-H929, read-out: maximal degradation of IKZF1): > 80%
- IKZF1 degradation (IKZF1; after 1 hour treatment): 50%
- potency greater than pomalidomide (IKZF1; at 2 hr): > 2000 fold
- degradation of steady state IKZF1 (IKZF1; multiple myeloma cells, within 1.5 hours at 0.3 nM): > 75%
- IC50 [5]: 12000 pM
- Median Survival ([6]; Compound 1 10 μg/kg PO daily, Dexamethasone 5000 μg/kg IV once a week): 33
- Statistical Significance Compared to Vehicle ([6]; survival, Logrank, Compound 1 10 μg/kg, Dexamethasone 5000 μg/kg): 0.007
- IC50 (SU-DHL-1): 415 pM
- IC50 (TMD8): 78 pM
- IC50 (Jeko-1): 43200 pM
- IC50 [7]: 300 pM
- off-target inhibition [8]: no targets inhibited >50%
- more potent than pomalidomide (NHL cell lines): more than 100 fold
- IC50 (OCI-LY10): 30 pM
- IC50 (MM.1R): 83 pM
- Kd (cereblon-DDB1): 900 pM
- Statistical Significance Compared to Vehicle ([9]; 30 μg/kg PO daily): 0.04
- Statistical Significance Compared to Vehicle ([9]; 100 μg/kg PO daily): 0.04
- tumor volume ([9]; Compound 1 10, 30, or 100 μg/kg, pomalidomide 3000 μg/kg, 18 days): decreased
- effect on viability (HepG2 liver cancer cells): no significant effect
- IC50 [10]: 400 pM
